Source: patent publication US12391660B2, “Heteroaromatic acetamide derivative, and preparation and use thereof” (Hangzhou Westan Pharmaceutical Technology Co., Ltd, priority 2019, dated 2025)

Experiments:
human TRPA1 [1] = molecular target: T1, human TRPA1 (Homo sapiens (Human), UniProt O75762); assay: FLIPR assay of inhibitory activity on human TRPA1 (calcium ion flux fluorescence); format: cell-based; details: HEK293 cells stably expressing human TRPA1
Description: 1. FLIPR Assay of Inhibitory Activity on Human TRPA1
A calcium ion flux fluorescence method (FLIPR assay) was adopted to measure the inhibitory activity of compounds on human TRPA1 channel. The literature reports of Lee and Chen et al. may be referred to for the method [Lee et al. Br J Pharmacol 2008, 153 (8): 1739-1749] [Chen et al. Pain 2011, 152(5):1165-72].
A HEK293 recombinant cell strain stably expressing human TRPA1 (Creative Biogene, NY) was cultured in DMEM (Thermo Fisher Scientific, Shanghai) medium (containing 10% calf serum, 5 μg/ml Blasticidin and 400 ug/ml G418). The incubator was under a condition of 37° C. and air humidity with 5% CO2.
TRPA1 cells were seeded in a 96-well analysis plate at a density of 75,000 cells per well (100 ul/well), and cultured overnight in an incubator at 37° C. and 5% CO2. On the second day, incubation was continued overnight under the same condition to induce the expression of TRPA1 after the culture medium in each well was poured out and a fresh supplement with the same culture medium containing 0.1 μg/ml Tetracycline was added. The further next day, the culture medium was pour out, a DMEM culture solution (also containing 2.5 mM Probenicid) containing 5 μM Fluo-4 AM (Molecular Probes) was added to each well, and incubation was conducted at 37° C. for 1 hour.
The compound was dissolved in 100% DMSO to prepare a 30 mM stock solution which was stored at −20° C. On the day of use, the compound stock solution was thawed at room temperature. Each compound was subjected to 1:5 serial dilution using DMSO medium at a starting concentration of 30 μM with 9 concentration points on a 96-well plate. Each compound was diluted in duplicate for testing. Ruthenium Red was used as the positive control compound and the same dilution was carried out at a starting concentration of 3 μM.
The cell analysis plate was placed in an FLIPR instrument […], and the compound in the compound plate was added to the corresponding hole on the cell analysis plate (First addition) via an automatic program, and the calcium ion fluorescence signal was recorded to determine whether the compound had agonistic activity. After 10 minutes, CaCl2 (Second addition) was added a final concentration of 3 mM to each well to stimulate intracellular calcium flux signals. Ca^++-dependent fluorescence signal was monitored continuously at 538 nm wavelength to analyze the inhibitory activity of the compounds.
The data was collected and analyzed using a FLIPR program. The fluorescence peak value was used to evaluate the inhibitory (or agonistic) activity of the compounds at each concentration. EXCEL and PRISM programs were used to calculate the IC50 value of the compounds.

human TRPA1 [2] = molecular target: T1, human TRPA1; assay: Inhibitory activity on human TRPA1 by conventional patch clamp assay; format: cell-based; details: HEK293 human TRPA1, 100 μM cinnamaldehyde
Description: 2. Inhibitory Activity on Human TRPA1 by Conventional Patch Clamp Assay
In order to compare the influences of different measuring methods on the inhibitory activity of compounds, a conventional patch clamp method was used to further measure the inhibitory activity of compounds 1, 11, 31, 50, and 78 on TRPA1. The principle and procedures of the conventional patch clamp assay could be found in the literature report of Chen et al [Chen et al. Pain 2011, 152(5):1165-72].
Evaluation of TRPA1 inhibitory activity of compounds was conducted using the HEK293 recombinant cell strain (Creative Biogene, NY) stably expressing human TRPA1. Cells were cultured in a DMEM/F12 (3:1, Thermo Fisher Scientific) medium (containing 5% calf serum, 2 mM glutamine and 20 mM HEPES) in an incubator at 37° C. and air humidity containing 5% CO2.
During the experiment, the adherent cells were placed in a recording room under the inverted microscope. All experiments were performed at room temperature. Each cell itself was used as a control thereof.
Test compounds at a final concentration were all prepared on the testing day and then dissolved in the extracellular fluid. The extracellular fluid was (mM): NaCl, 137; KCl, 4; CaCl2, 1.8; MgCl2, 1; HEPES, 10; glucose 10; pH 7.4 (NaOH titration). All the solutions of the test compounds and control compounds contained 0.3% DMSO.
The compounds were all perfused with a perfusion system by virtue of their own gravity. At least two cells were tested for each concentration of the compound. After the current became stable, the variation in magnitude of the current before and after the compound was used to calculate the blocking effect of the compound. 100 μM cinnamaldehyde was used as the positive control.
The cells were transferred to the perfusion tank and perfused with extracellular fluid. The intracellular fluid was: 130 mM K-aspartate; 5 mM MgCl2; 5 mM EGTA; 10 mM
HEPES; pH 7.2 (KOH titration). The intracellular fluid was stored in a small amount in a −80 degree refrigerator in batches, and thawed on the day of the experiment. The electrode was pulled with PC-10 (Narishige, Japan). Whole-cell patch clamp recording was adopted and noise was filtered at one-fifth of the sampling frequency.
The cells were clamped at 20 mV, and then depolarized to 80 mV with a square wave of 500 milliseconds to obtain the TRPA1 current (see FIG. 1).
This procedure was repeated every 3 seconds. Cells were patched in a normal extracellular fluid, current A was obtained via voltage procedure testing, and then perfusion was conducted with an extracellular fluid added with 100 μM cinnamaldehyde to activate TRPA1 current to obtain current B. After the current stabilized, elution was conducted with normal extracellular fluid and perfusion was conducted with an extracellular fluid added with 100 μM cinnamaldehyde and a compound at various concentrations to obtain current C. Finally, blocking rate of the compound was obtained according to […], see FIG. 2.
Data collection and analysis was conducted using pCLAMP 10 (Molecular Devices, Union City, CA). Current stabilization meant that the variation in the current with time was within a limited range. The magnitude of the current after stabilization was used to reflect the effect of the compound in this process.

mouse model of COPD = details: pretreatment of mice, cigarette smoke; cited from earlier work
guinea pigs = details: cough induced by acrolein, crotonaldehyde, cinnamaldehyde; cited from earlier work
mouse asthma model = details: cited from earlier work
asthmatic rats = assay: Ovalbumin-induced asthma rat model (HE staining, lung tissue inflammation area, airway inflammation score); format: in vivo, SD rats; details: compared with the model group
Description: 4. Effects of Compounds on Ovalbumin-Induced Asthma in Mouse and Rat Models
SPF-grade SD male rats (purchased from Zhejiang Academy of Medical Sciences, license number SCXK (Zhejiang) 2019-0002) with a body weight of 160-180 g; and SPF-grade female BABL/c mice (purchased from Zhejiang Weitong Lihua Experimental Animals Technology Co., Ltd., license number SCXK (Zhejiang) 2019-0001) with a body weight of 16-18 g were used. The above animals were raised by the Experimental Animal Center of Zhejiang Academy of Traditional Chinese Medicine.
Formulation of compound solution: compound was vortexed in a solvent system, dissolved by ultrasound, and prepared into a solution at a corresponding concentration, which was prepared just before use (the solvent system was composed of 5% Solutol HS 15, 5% DMSO and 90% physiological saline).
BABL/c mice or SD rats were randomly divided into: normal control group, model control group, dexamethasone group (0.72 mg/kg), and the respective test compound groups (one group for each dose), 10 mice in each group; 6 rats in each group.
Sensitization of rats: On Day 1 and Day 8, the model control group and the respective drug administration groups were intraperitoneally injected with 1 ml of 10% OVA sensitizing solution, and the normal group was intraperitoneally injected with an equal volume of normal saline.
Rat: from Day 15, the dexamethasone group and the respective test compound groups were intraperitoneally injected, 20 minutes before challenge, with the corresponding drugs with an injection volume of 0.3 ml/100 g; the model control group was intraperitoneally injected, 20 minutes before challenge, with an equal volume of solvent system; and the normal control group was not treated. Administration was conducted for 7 consecutive days. […]
The rat was anesthetized with 10% urethane at 1.3 ml/100 g volume, and the left lung tissue was taken and fixed in 4% neutral formaldehyde, paraffin-embedded according to routine operation, sectioned for HE staining. […] NIS-Elements D 3.2 software was used to manually integrate and measure the total area of lung tissue sections and the inflammation area under all fields of view, the total areas under each field of view were accumulated, and the percentage of the cumulative area of inflammation in the total area was calculated, wherein the percentage of inflammation area=cumulative area of inflammation/total area×100%.
All data were expressed as mean±standard deviation (x±s), and the data were processed by SPSS 20.0 statistical software. […]

T1 sequence (O75762 whole entry): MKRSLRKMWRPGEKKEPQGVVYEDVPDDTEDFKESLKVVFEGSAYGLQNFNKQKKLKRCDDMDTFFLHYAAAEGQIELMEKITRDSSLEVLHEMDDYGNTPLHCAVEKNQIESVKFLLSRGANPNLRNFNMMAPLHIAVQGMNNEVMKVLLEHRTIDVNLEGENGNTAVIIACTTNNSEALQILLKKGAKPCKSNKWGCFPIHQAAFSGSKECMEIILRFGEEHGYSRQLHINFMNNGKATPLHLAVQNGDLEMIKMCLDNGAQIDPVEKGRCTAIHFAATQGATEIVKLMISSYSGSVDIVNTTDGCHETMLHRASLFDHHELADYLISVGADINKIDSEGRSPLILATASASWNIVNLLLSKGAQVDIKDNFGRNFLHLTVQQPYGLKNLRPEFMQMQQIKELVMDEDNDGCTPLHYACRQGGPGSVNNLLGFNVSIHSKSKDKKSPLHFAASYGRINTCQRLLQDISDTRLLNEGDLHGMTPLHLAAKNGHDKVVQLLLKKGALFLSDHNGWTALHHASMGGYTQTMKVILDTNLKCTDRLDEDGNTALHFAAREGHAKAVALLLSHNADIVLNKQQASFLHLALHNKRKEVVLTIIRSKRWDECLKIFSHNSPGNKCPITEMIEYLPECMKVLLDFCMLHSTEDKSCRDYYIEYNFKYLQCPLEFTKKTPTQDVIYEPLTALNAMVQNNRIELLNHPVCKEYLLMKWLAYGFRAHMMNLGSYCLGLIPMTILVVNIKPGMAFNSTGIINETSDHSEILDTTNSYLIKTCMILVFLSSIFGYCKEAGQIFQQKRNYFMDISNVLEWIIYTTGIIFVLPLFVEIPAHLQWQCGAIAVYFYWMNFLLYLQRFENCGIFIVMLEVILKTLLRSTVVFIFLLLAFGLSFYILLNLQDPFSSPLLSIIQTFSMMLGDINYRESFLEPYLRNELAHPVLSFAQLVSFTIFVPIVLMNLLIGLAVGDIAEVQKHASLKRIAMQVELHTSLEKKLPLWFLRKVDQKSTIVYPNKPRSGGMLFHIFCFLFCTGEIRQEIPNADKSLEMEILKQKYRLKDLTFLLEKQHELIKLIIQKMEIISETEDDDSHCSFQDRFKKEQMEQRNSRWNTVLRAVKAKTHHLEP

IC50 (human TRPA1 [1]) [nM] | IC50 (human TRPA1 [2]) [nM] | Compound | also measured
53 | 83 | CC(C)(C)C1CCN(C(=O)C2Cc3cc(C#N)ccc3N2)CC1 (centres unmarked) [Compound 78, 2-(4-(tert-butyl)piperidine-1-carbonyl)-5-cyanoindoline] | 
28 | 65 | N#Cc1ccc(OC2(C(=O)N3CCN(c4nccc(C(F)(F)F)n4)CC3)CCCC2)cc1 [Compound 50, 4-((1-(4-(4-(trifluoromethyl)pyrimidin-2-yl)piperazine-1-carbonyl)cyclopentyl)oxy)benz onitrile] | 
19 | 35 | N#Cc1ccc(NC2(C(=O)N3CCN(c4cccc(C(F)(F)F)n4)CC3)CCCC2)cc1 [Compound 11, 4-((1-(4-(6-(trifluoromethyl)pyridin-2-yl)piperazine-1-carbonyl)cyclopentyl)amino)benz onitrile] | 

Further lines, the compound ahead of its results:

Compound | IC50 (human TRPA1 [1]) [nM] | IC50 (human TRPA1 [2]) [nM] | also measured
CC(C)c1ccc(NC(=O)Cn2cnc3c2c(=O)n(C)c(=O)n3C)cc1 [HC-030031] |  |  | plasma protein extravasation induced by CS (mouse model of COPD): protective effect; cough response (guinea pigs): significantly attenuate
Cn1c(=O)c2c(CC(=O)Nc3nc(-c4ccc(F)c(C(F)(F)F)c4F)cs3)csc2n(C)c1=O [GRC17536] |  |  | acidophilic leukocytes (mouse asthma model): reduce; mucus secretion and airway hyperreactivity (mouse asthma model): inhibit
C[C@@H]1C[C@H]2[C@@H]3CCC4=CC(=O)C=C[C@]4(C)[C@@]3(F)[C@@H](O)C[C@]2(C)[C@@]1(O)C(=O)CO [dexamethasone, reference compound] |  |  | lung tissue inflammation and inflammatory cell infiltration around the airway (HE x40) (asthmatic rats): significant improvement
